Data on two substances can be found in patent US12458587B2, “Hypoallergenic composition for skin regeneration or skin soothing, containing culture product or extract of Aureobasidium pullulans strain” (AMOREPACIFIC CORPORATION, priority 2018, dated 2025).

For one data set, the system named is keratinocytes (HaCaT). In words: Scratch wound healing on keratinocyte monolayer (skin-regenerating effect). In kind it is cell-based, human. The conditions noted are these: relative to scratched area as 100%, 12 ppm (positive control 10% FBS), n=4. Here is the method: A linear scratch wound was made on a monolayer of keratinocytes (HaCaT). The HaCaT cells were cultured using Dulbecco's modified Eagle's medium (DMEM, Lonza, USA) containing 10% fetal bovine serum (FBS, GIBCO, USA) in a 5% CO2 incubator at 37° C. Immediately after the application of a scratch, the medium was replaced with a fresh medium containing the sample to be tested and the effect of the test sample on skin regeneration was investigated. The regeneration of the cells on the scratched area was imaged with a time-lapse microscope for 36 hours with 30-minute intervals and wound healing area (%) was compared relative the scratched area (as 100%) (n=4 per group).

Another data set concerns rabbit eye. Particulars: 5%; cited from earlier work.

For Madecassoside, in the data set with keratinocytes (HaCaT), the “Wound healing area (%) 12 hours later” value came to 33.56%, the “Wound healing area (%) 24 hours later” value stood at 54.56%, the “Wound healing area (%) 36 hours later” value is reported as 62.48% and the “Wound healing area (%) Immediately after scratching” value was 0%.

Turning to “sodium magnesium lauryl-myristyl-6-ethoxy-sulfate [Texapon Asv®]”, the “eye irritation in the Draize rabbit eye test” value in the data set with rabbit eye is listed as “moderate irritation”.
